Results from PubChem BioAssay AID2060909 (Molecular Pharmacology Branch, DTP, NCI, 2025).

System: 362531-283-R-J2-PDC complex spheroid viability
Assay: Anticancer human tumor 362531-283-R-J2-PDC patient-derived colon adenocarcinoma cell line growth inhibition [RAS]
Conditions: for IC50: curve of first compound; for viability, T/C: stronger effect = lower value
Source text: RAS pathway inhibitors in Combinations in Complex Spheroids
A high-throughput screen of multi-cell type tumor spheroids was designed to identify active combinations of RAS pathway inhibitors and targeted small molecules. Complex spheroids include a stromal component modeled by human endothelial cells (HUVEC) and fibroblasts modeled by human mesenchymal stem cells (MSCs). The concentration ranges selected for each drug and investigational agent were based upon clinically achievable concentrations if the clinical Cmax of the agent was known.
Compounds. The drugs and investigational agents: abemaciclib (NSC768073), cobimetinib (NSC768068), divarasib (GDC6063, NSC841802), docetaxel (NSC628503), GDC-1971 (RLY-1971, NSC841576), gemcitabine (NSC613327), inavolisib (NSC800729), ipatasertib (NSC767898), KB-0742 (NSC834161), MRTX-1133 (NSC836407), osimertinib (NSC779217), RMC-4630 (NSC839698), RMC-6236 (NSC851965), RMC-6291 (NSC852671), Ro-3306 (NSC812927), sapanisertib (NSC764658), SN-38 (NSC673596), staurosporine (NSC755774), SY5609 (NSC837396), and tovorafenib (DAY101, NSC766906), were obtained from the National Cancer Institute (NCI) Developmental Therapeutics Program Chemical Repository. The FDA-approved anticancer drug set is available from the NCI Developmental Therapeutics Program. […] The stock solutions were prepared in dimethyl sulfoxide (DMSO, Sigma-Aldrich, St. Louis, MO, cat. D2650) at 800-fold the tested concentration and stored at -70 degrees C prior to their use. All drugs and investigational agents were tested over a range starting from a high concentration at or near the clinical Cmax and decreasing in half-log increments. If the clinical Cmax for an agent had not been determined, the highest concentration tested was 10 microM.
Cell Culture. All cells were maintained in an incubator at 37 degrees C and 5% CO2 with 95% humidity. The PDC lines were cultured according to standard operating procedures established by the NCI PDMR. All PDCs were thawed and cultured in Matrigel-coated flasks prepared with a working solution of 1X Ham's F-12 nutrient mix, without supplementation (Invitrogen, Waltham, MA, cat. 11765054), 100 U/mL penicillin-streptomycin (Invitrogen, cat. 15140122), and 2.5% Matrigel (Corning Inc., Corning, NY, cat. 354248) for the first three passages. The 362531-283-R-J2-PDC and 782815-120-R-J1-PDC lines were cultured in 6C/Colon 1B media, which includes advanced DMEM/F-12 (Thermo Fisher Scientific, cat. 12634028), 10 mM HEPES (Thermo Fisher Scientific, cat. 15630080), 1X GlutaMAX supplement (Thermo Fisher Scientific, cat. 35050061), 0.1 mg/mL primocin (InvivoGen, San Diego, CA, cat. ant-pm-2), 10% defined fetal bovine serum, heat inactivated (HyClone Laboratories Inc., Logan, UT, cat. SH30070.03HI), 50% L-WRN conditioned media (ATCC, cat. CRL-3276), 1.25 mM N-Acetyl-L-cysteine (Sigma-Aldrich, cat. A9165), 10 mM nicotinamide (Sigma-Aldrich, cat. N0636), 1X B-27 supplement (Thermo Fisher Scientific, cat. 17504044), 1X N-2 supplement (Thermo Fisher Scientific, cat. 17502048), 50 ng/mL human EGF (Thermo Fisher Scientific, cat. PHG0311), and 10 microM Y-27632 dihydrochloride (Tocris Bioscience, cat. 1254). The K12877-001-R-J1-PDC line was cultured in 6I media, which includes all 6C/Colon 1B media plus 10 ng/mL human FGF-10 (PeproTech, cat. 100-26), 1 ng/mL human FGF-2 (PeproTech, cat. 100-18B), 1 µM prostaglandin E2 (Tocris Bioscience, cat. 2296), […] hydrocortisone (Sigma-Aldrich, cat. H4001), and […] bovine insulin (Sigma-Aldrich, cat. I6634). The K86415-001-R-J1-PDC line was cultured in 6D media, which includes all 6C/Colon 1B media components minus the L-WRN conditioned media. The 485176-168-R4-J1-PDC was cultured in PANC media, which includes all 6C/Colon 1B media plus 100 ng/mL human FGF-10 (PeproTech, cat. 100-26), 500 nM SB-431542 (Selleckchem, cat. S1067), and 10 nM gastrin (Tocris Bioscience, cat. 3006). […]

[1] = second compound 0.0316 µM, first compound 0.0316 µM
[2] = second compound 0.0316 µM, first compound 0.1 µM
[3] = second compound 0.0316 µM, first compound 0.316 µM
[4] = second compound 0.0316 µM, first compound 1 µM
[5] = second compound 0.0316 µM, first compound 3.16 µM
[6] = second compound 0.0316 µM, first compound 10 µM
[7] = second compound 0.1 µM, first compound 0.0316 µM
[8] = second compound 0.1 µM, first compound 0.1 µM
[9] = second compound 0.1 µM, first compound 0.316 µM
[10] = second compound 0.1 µM, first compound 1 µM
[11] = second compound 0.1 µM, first compound 3.16 µM
[12] = second compound 0.1 µM, first compound 10 µM
[13] = second compound 0.316 µM, first compound 0.0316 µM
[14] = second compound 0.316 µM, first compound 0.1 µM
[15] = second compound 0.316 µM, first compound 0.316 µM
[16] = second compound 0.316 µM, first compound 1 µM
[17] = second compound 0.316 µM, first compound 3.16 µM
[18] = second compound 0.316 µM, first compound 10 µM
[19] = second compound 1 µM, first compound 0.0316 µM
[20] = second compound 1 µM, first compound 0.1 µM
[21] = second compound 1 µM, first compound 0.316 µM
[22] = second compound 1 µM, first compound 1 µM
[23] = second compound 1 µM, first compound 3.16 µM
[24] = second compound 1 µM, first compound 10 µM
[25] = second compound 3.16 µM, first compound 0.0316 µM
[26] = second compound 3.16 µM, first compound 0.1 µM
[27] = second compound 3.16 µM, first compound 0.316 µM
[28] = second compound 3.16 µM, first compound 1 µM
[29] = second compound 3.16 µM, first compound 3.16 µM
[30] = second compound 3.16 µM, first compound 10 µM
[31] = second compound 10 µM, first compound 0.0316 µM
[32] = second compound 10 µM, first compound 0.1 µM
[33] = second compound 10 µM, first compound 0.316 µM
[34] = second compound 10 µM, first compound 1 µM
[35] = second compound 10 µM, first compound 3.16 µM
[36] = second compound 10 µM, first compound 10 µM
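Also: spheroids exposed to the agents for 7 days before readout.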
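For viability, T/C in this document: luminescence viability as percent of DMSO vehicle control wells.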

With `CCC(CC)c1cc(NC2CCC(N)C2)n2nccc2n1` (stereo unspecified) + C#Cc1c(F)ccc2cc(O)cc(-c3ncc4c(N5CC6CCC(C5)N6)nc(OCC56CCCN5CC(F)C6)nc4c3F)c12 the IC50 (second compound 0.0316 µM) was 4960 nM, the IC50 (second compound 0.1 µM) was 4360 nM and the IC50 (second compound 0.316 µM) was 5070 nM. For the same compound, the IC50 (second compound 1 µM) was 1820 nM, the IC50 (second compound 3.16 µM) was 1500 nM and the IC50 (second compound 10 µM) was 338 nM. It also gave a viability, T/C [1] of 96.9%, a viability, T/C [2] of 107% and a viability, T/C [3] of 99.9%. It also gave a viability, T/C [4] of 105%, a viability, T/C [5] of 79% and a viability, T/C [6] of 4.8%. It also gave a viability, T/C [7] of 105%, a viability, T/C [8] of 98.8% and a viability, T/C [9] of 101%. The viability, T/C [10] was 88%, the viability, T/C [11] was 70% and the viability, T/C [12] was 3.26%. The viability, T/C [13] was 117%, the viability, T/C [14] was 96.9% and the viability, T/C [15] was 89.5%. It also gave a viability, T/C [16] of 83.3%, a viability, T/C [17] of 87.2% and a viability, T/C [18] of 2.95%. The viability, T/C [19] was 80.4%, the viability, T/C [20] was 88.3% and the viability, T/C [21] was 82.2%. It also gave a viability, T/C [22] of 82.9%, a viability, T/C [23] of 19.8% and a viability, T/C [24] of 4.12%. The viability, T/C [25] was 72.4%, the viability, T/C [26] was 76.3% and the viability, T/C [27] was 68.1%. For the same compound, the viability, T/C [28] was 79.2%, the viability, T/C [29] was 5.75% and the viability, T/C [30] was 3.27%. For the same compound, the viability, T/C [31] was 44.2%, the viability, T/C [32] was 49.4% and the viability, T/C [33] was 58.1%. It also gave a viability, T/C [34] of 36.2%, a viability, T/C [35] of 7.13% and a viability, T/C [36] of 4.45%.

`Cc1nc(N2CCC3(CC2)COC(C)C3N)c(CO)nc1Sc1ccnc(N)c1Cl` (stereo unspecified) + C#Cc1c(F)ccc2cc(O)cc(-c3ncc4c(N5CC6CCC(C5)N6)nc(OCC56CCCN5CC(F)C6)nc4c3F)c12 gave an IC50 (second compound 0.0316 µM) of 5180 nM, an IC50 (second compound 0.1 µM) of 1650 nM and an IC50 (second compound 0.316 µM) of 883 nM. For the same compound, the IC50 (second compound 1 µM) was 482 nM, the IC50 (second compound 3.16 µM) was 156 nM and the IC50 (second compound 10 µM) was less than 31.6 nM. The viability, T/C [1] was 104%, the viability, T/C [2] was 107% and the viability, T/C [3] was 94.8%. It also gave a viability, T/C [4] of 88.9%, a viability, T/C [5] of 76.1% and a viability, T/C [6] of 19.1%. It also gave a viability, T/C [7] of 104%, a viability, T/C [8] of 102% and a viability, T/C [9] of 92.3%. For the same compound, the viability, T/C [10] was 69.5%, the viability, T/C [11] was 25.7% and the viability, T/C [12] was 4.47%. For the same compound, the viability, T/C [13] was 99.9%, the viability, T/C [14] was 93.3% and the viability, T/C [15] was 79.2%. It also gave a viability, T/C [16] of 49.8%, a viability, T/C [17] of 7.28% and a viability, T/C [18] of 4.45%. The viability, T/C [19] was 81%, the viability, T/C [20] was 81.5% and the viability, T/C [21] was 69.5%. For the same compound, the viability, T/C [22] was 16.2%, the viability, T/C [23] was 7.77% and the viability, T/C [24] was 4.16%. The viability, T/C [25] was 81%, the viability, T/C [26] was 59.2% and the viability, T/C [27] was 35.6%. The viability, T/C [28] was 11%, the viability, T/C [29] was 9.29% and the viability, T/C [30] was 6.04%. It also gave a viability, T/C [31] of 38%, a viability, T/C [32] of 22.6% and a viability, T/C [33] of 14.1%. The viability, T/C [34] was 13.3%, the viability, T/C [35] was 8.12% and the viability, T/C [36] was 3.97%.

Work on `NC1c2ccccc2OC12CCN(c1cnc3c(N4CCCc5ncccc54)n[nH]c3n1)CC2` (stereo unspecified) + C#Cc1c(F)ccc2cc(O)cc(-c3ncc4c(N5CC6CCC(C5)N6)nc(OCC56CCCN5CC(F)C6)nc4c3F)c12 yielded an IC50 (second compound 0.0316 µM) of 354 nM, an IC50 (second compound 0.1 µM) of 175 nM and an IC50 (second compound 0.316 µM) of 75.2 nM. For the same compound, the IC50 (second compound 1 µM) was 35.8 nM, the IC50 (second compound 3.16 µM) was less than 31.6 nM and the IC50 (second compound 10 µM) was less than 31.6 nM. It also gave a viability, T/C [1] of 98.7%, a viability, T/C [2] of 73.2% and a viability, T/C [3] of 60.9%. The viability, T/C [4] was 10.6%, the viability, T/C [5] was 5.23% and the viability, T/C [6] was 1.84%. It also gave a viability, T/C [7] of 79.7%, a viability, T/C [8] of 78.1% and a viability, T/C [9] of 20.7%. The viability, T/C [10] was 7.72%, the viability, T/C [11] was 6.1% and the viability, T/C [12] was 1.33%. It also gave a viability, T/C [13] of 84.2%, a viability, T/C [14] of 38.8% and a viability, T/C [15] of 9.03%. For the same compound, the viability, T/C [16] was 6.67%, the viability, T/C [17] was 5.3% and the viability, T/C [18] was 1.76%. For the same compound, the viability, T/C [19] was 54.7%, the viability, T/C [20] was 12.8% and the viability, T/C [21] was 10.8%. It also gave a viability, T/C [22] of 6.95%, a viability, T/C [23] of 5.9% and a viability, T/C [24] of 1.83%. The viability, T/C [25] was 25.5%, the viability, T/C [26] was 9.78% and the viability, T/C [27] was 9.64%. The viability, T/C [28] was 6.45%, the viability, T/C [29] was 5.47% and the viability, T/C [30] was 1.34%. The viability, T/C [31] was 11.1%, the viability, T/C [32] was 6.83% and the viability, T/C [33] was 5.98%. The viability, T/C [34] was 5.62%, the viability, T/C [35] was 2.9% and the viability, T/C [36] was 1.51%.
